The values below come from US20230295197A1, “STAT5 and STAT6 Degraders and Uses Thereof” (REGENTS OF THE UNIVERSITY OF MICHICAN, priority 2022, published 2023).

The target of the experiment is T1, STAT6 (Homo sapiens, UniProt P42226).
T1 construct: endogenous in cells; host or cells: MOLM-16, KU-812, SKNO1, MB231, L1236
T1 sequence (P42226 1-847): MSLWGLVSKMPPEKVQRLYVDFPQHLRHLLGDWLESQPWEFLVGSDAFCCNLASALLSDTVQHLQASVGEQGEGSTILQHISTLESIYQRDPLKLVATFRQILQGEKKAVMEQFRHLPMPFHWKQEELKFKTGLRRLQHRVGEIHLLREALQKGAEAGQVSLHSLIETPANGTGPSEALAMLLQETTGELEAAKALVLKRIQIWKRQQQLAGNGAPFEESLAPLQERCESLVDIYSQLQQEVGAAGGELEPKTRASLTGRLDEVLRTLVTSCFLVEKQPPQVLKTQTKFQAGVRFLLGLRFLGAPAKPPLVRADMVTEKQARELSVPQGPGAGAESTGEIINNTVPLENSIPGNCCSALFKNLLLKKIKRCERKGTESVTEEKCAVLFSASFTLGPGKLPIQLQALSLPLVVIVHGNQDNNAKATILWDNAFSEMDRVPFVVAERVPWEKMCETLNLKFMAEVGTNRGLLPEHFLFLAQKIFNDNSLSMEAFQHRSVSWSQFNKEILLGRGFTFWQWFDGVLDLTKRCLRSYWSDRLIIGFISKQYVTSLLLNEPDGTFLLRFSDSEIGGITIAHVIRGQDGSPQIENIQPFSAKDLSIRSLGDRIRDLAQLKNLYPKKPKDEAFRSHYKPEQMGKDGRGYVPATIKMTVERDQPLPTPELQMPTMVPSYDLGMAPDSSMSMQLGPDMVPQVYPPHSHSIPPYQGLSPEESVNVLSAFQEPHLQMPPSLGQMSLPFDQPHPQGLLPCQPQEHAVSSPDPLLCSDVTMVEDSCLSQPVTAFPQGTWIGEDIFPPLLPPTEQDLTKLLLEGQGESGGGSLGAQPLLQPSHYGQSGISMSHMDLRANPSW
Nature of the experiment: Immunoblotting (Western blot) analysis of STAT6 degradation efficiency of degraders in treated cells. To be noted: MOLM-16 cells, class symbols, read-out: DC50 S6 MOLM-16. Type of experiment: cell-based. The procedure, abridged: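 About 1 million cells per point, grown in 10% FBS medium at 37 °C/5% CO2, were exposed to compound at the indicated concentrations and times, then lysed in RIPA buffer with protease and phosphatase inhibitors. Equal protein (20-40 μg) was resolved by SDS-PAGE, blotted to PVDF, and probed with anti-STAT5, anti-STAT6 and anti-GAPDH antibodies.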
For orientation: In western blotting, separated proteins are transferred to a membrane and probed.
For the compound `CC(C)(C)[C@H](NC(=O)c1cc2cc(C(F)(F)P(=O)(O)O)ccc2s1)C(=O)N1C[C@@H](OCC(=O)NCCCC#Cc2cccc3c2C(=O)N(C2CCC(=O)NC2=O)C3=O)C[C@H]1C(=O)N1CCO[C@H](c2ccccc2)C1` (stereo partly drawn) [Compound 483, ((2-(((2S)-1-((2S,4S)-4-(2-((5-(2-(2,6-dioxopiperidin-3-yl)-1,3-dioxoisoindolin-4-yl)pent-4-yn-1-yl)amino)-2-oxoethoxy)-2-((R)-2-phenylmorpholine-4-carbonyl)pyrrolidin-1-yl)-3,3-dimethyl-1-oxobutan-2-yl)carbamoyl)benzo[b]thiophen-5-yl)difluoromethyl)phosphonic acid], the DC50 (usually the concentration at which degradation of the target reaches its halfway point) fell in the range of 1 to 10 µM.

With `CC(C)(C)[C@H](NC(=O)c1cc2cc(C(F)(F)P(=O)(O)O)ccc2s1)C(=O)N1C[C@@H](OCC(=O)NCCCC#Cc2ccc3c(c2)C(=O)N(C2CCC(=O)NC2=O)C3=O)C[C@H]1C(=O)N1CCO[C@H](c2ccccc2)C1` (stereo partly drawn) [Compound 484, ((2-(((2S)-1-((2S,4S)-4-(2-((5-(2-(2,6-dioxopiperidin-3-yl)-1,3-dioxoisoindolin-5-yl)pent-4-yn-1-yl)amino)-2-oxoethoxy)-2-((R)-2-phenylmorpholine-4-carbonyl)pyrrolidin-1-yl)-3,3-dimethyl-1-oxobutan-2-yl)carbamoyl)benzo[b]thiophen-5-yl)difluoromethyl)phosphonic acid], the DC50 fell in the range of 1 to 10 µM.

As for `CC(C)(C)[C@H](NC(=O)c1cc2cc(C(F)(F)P(=O)(O)O)ccc2s1)C(=O)N1C[C@@H](OCC(=O)NCCCCC#Cc2cccc3c2C(=O)N(C2CCC(=O)NC2=O)C3=O)C[C@H]1C(=O)N1CCO[C@H](c2ccccc2)C1` (stereo partly drawn) [Compound 485, ((2-(((2S)-1-((2S,4S)-4-(2-((6-(2-(2,6-dioxopiperidin-3-yl)-1,3-dioxoisoindolin-4-yl)hex-5-yn-1-yl)amino)-2-oxoethoxy)-2-((R)-2-phenylmorpholine-4-carbonyl)pyrrolidin-1-yl)-3,3-dimethyl-1-oxobutan-2-yl)carbamoyl)benzo[b]thiophen-5-yl)difluoromethyl)phosphonic acid], the DC50 is more than 10 µM.

As for `CC(C)(C)[C@H](NC(=O)c1cc2cc(C(F)(F)P(=O)(O)O)ccc2s1)C(=O)N1C[C@@H](OCC(=O)NCCCCC#Cc2ccc3c(c2)C(=O)N(C2CCC(=O)NC2=O)C3=O)C[C@H]1C(=O)N1CCO[C@H](c2ccccc2)C1` (stereo partly drawn) [Compound 486, ((2-(((2S)-1-((2S,4S)-4-(2-((6-(2-(2,6-dioxopiperidin-3-yl)-1,3-dioxoisoindolin-5-yl)hex-5-yn-1-yl)amino)-2-oxoethoxy)-2-((R)-2-phenylmorpholine-4-carbonyl)pyrrolidin-1-yl)-3,3-dimethyl-1-oxobutan-2-yl)carbamoyl)benzo[b]thiophen-5-yl)difluoromethyl)phosphonic acid], the DC50 is more than 10 µM.

In the case of `CC(C)(C)[C@H](NC(=O)c1cc2cc(C(F)(F)P(=O)(O)O)ccc2s1)C(=O)N1C[C@@H](OCC(=O)NCCCCCC#Cc2cccc3c2C(=O)N(C2CCC(=O)NC2=O)C3=O)C[C@H]1C(=O)N1CCO[C@H](c2ccccc2)C1` (stereo partly drawn) [Compound 487, ((2-(((2S)-1-((2S,4S)-4-(2-((7-(2-(2,6-dioxopiperidin-3-yl)-1,3-dioxoisoindolin-4-yl)hept-6-yn-1-yl)amino)-2-oxoethoxy)-2-((R)-2-phenylmorpholine-4-carbonyl)pyrrolidin-1-yl)-3,3-dimethyl-1-oxobutan-2-yl)carbamoyl)benzo[b]thiophen-5-yl)difluoromethyl)phosphonic acid], the DC50 is more than 10 µM.

For `CC(C)(C)[C@H](NC(=O)c1cc2cc(C(F)(F)P(=O)(O)O)ccc2s1)C(=O)N1C[C@@H](OCC(=O)NCCCCCC#Cc2ccc3c(c2)C(=O)N(C2CCC(=O)NC2=O)C3=O)C[C@H]1C(=O)N1CCO[C@H](c2ccccc2)C1` (stereo partly drawn) [Compound 488, ((2-(((2S)-1-((2S,4S)-4-(2-((7-(2-(2,6-dioxopiperidin-3-yl)-1,3-dioxoisoindolin-5-yl)hept-6-yn-1-yl)amino)-2-oxoethoxy)-2-((R)-2-phenylmorpholine-4-carbonyl)pyrrolidin-1-yl)-3,3-dimethyl-1-oxobutan-2-yl)carbamoyl)benzo[b]thiophen-5-yl)difluoromethyl)phosphonic acid], the DC50 was more than 10 µM.

Consider `CC(C)(C)[C@H](NC(=O)c1cc2cc(C(F)(F)P(=O)(O)O)ccc2s1)C(=O)N1C[C@@H](OCC(=O)NCCCCCCCCC#Cc2cccc3c2C(=O)N(C2CCC(=O)NC2=O)C3=O)C[C@H]1C(=O)N1CCO[C@H](c2ccccc2)C1` (stereo partly drawn) [Compound 489, ((2-(((2S)-1-((2S,4S)-4-(2-((10-(2-(2,6-dioxopiperidin-3-yl)-1,3-dioxoisoindolin-4-yl)dec-9-yn-1-yl)amino)-2-oxoethoxy)-2-((R)-2-phenylmorpholine-4-carbonyl)pyrrolidin-1-yl)-3,3-dimethyl-1-oxobutan-2-yl)carbamoyl)benzo[b]thiophen-5-yl)difluoromethyl)phosphonic acid], for which the half-maximal degradation concentration (DC50) is more than 10 µM.

Consider `CC(C)(C)[C@H](NC(=O)c1cc2cc(C(F)(F)P(=O)(O)O)ccc2s1)C(=O)N1C[C@@H](OCC(=O)NCCCCCCCCC#Cc2ccc3c(c2)C(=O)N(C2CCC(=O)NC2=O)C3=O)C[C@H]1C(=O)N1CCO[C@H](c2ccccc2)C1` (stereo partly drawn) [Compound 490, ((2-(((2S)-1-((2S,4S)-4-(2-((10-(2-(2,6-dioxopiperidin-3-yl)-1,3-dioxoisoindolin-5-yl)dec-9-yn-1-yl)amino)-2-oxoethoxy)-2-((R)-2-phenylmorpholine-4-carbonyl)pyrrolidin-1-yl)-3,3-dimethyl-1-oxobutan-2-yl)carbamoyl)benzo[b]thiophen-5-yl)difluoromethyl)phosphonic acid], for which the DC50 is more than 10 µM.

Consider `CC(C)(C)[C@H](NC(=O)c1cc2cc(C(F)(F)P(=O)(O)O)ccc2s1)C(=O)N1C[C@@H](OCC(=O)NCCCCCCCCCC#Cc2cccc3c2C(=O)N(C2CCC(=O)NC2=O)C3=O)C[C@H]1C(=O)N1CCO[C@H](c2ccccc2)C1` (stereo partly drawn) [Compound 491, ((2-(((2S)-1-((2S,4S)-4-(2-((11-(2-(2,6-dioxopiperidin-3-yl)-1,3-dioxoisoindolin-4-yl)undec-10-yn-1-yl)amino)-2-oxoethoxy)-2-((R)-2-phenylmorpholine-4-carbonyl)pyrrolidin-1-yl)-3,3-dimethyl-1-oxobutan-2-yl)carbamoyl)benzo[b]thiophen-5-yl)difluoromethyl)phosphonic acid], for which the DC50 is more than 10 µM.

Regarding `CC(C)(C)[C@H](NC(=O)c1cc2cc(C(F)(F)P(=O)(O)O)ccc2s1)C(=O)N1C[C@@H](OCC(=O)NCCCCCCCCCC#Cc2ccc3c(c2)C(=O)N(C2CCC(=O)NC2=O)C3=O)C[C@H]1C(=O)N1CCO[C@H](c2ccccc2)C1` (stereo partly drawn) [Compound 492, ((2-(((2S)-1-((2S,4S)-4-(2-((11-(2-(2,6-dioxopiperidin-3-yl)-1,3-dioxoisoindolin-5-yl)undec-10-yn-1-yl)amino)-2-oxoethoxy)-2-((R)-2-phenylmorpholine-4-carbonyl)pyrrolidin-1-yl)-3,3-dimethyl-1-oxobutan-2-yl)carbamoyl)benzo[b]thiophen-5-yl)difluoromethyl)phosphonic acid], the half-maximal degradation concentration (DC50) was more than 10 µM.

`CC(C)(C)[C@H](NC(=O)c1cc2cc(C(F)(F)P(=O)(O)O)ccc2s1)C(=O)N1C[C@@H](OCC(=O)NCC#Cc2cccc3c2C(=O)N(C2CCC(=O)NC2=O)C3=O)C[C@H]1C(=O)N1CCC[C@H](c2ccccc2)C1` (stereo partly drawn) [Compound 493, ((2-(((2S)-1-((2S,4S)-4-(2-((3-(2-(2,6-dioxopiperidin-3-yl)-1,3-dioxoisoindolin-4-yl)prop-2-yn-1-yl)amino)-2-oxoethoxy)-2-((R)-3-phenylpiperidine-1-carbonyl)pyrrolidin-1-yl)-3,3-dimethyl-1-oxobutan-2-yl)carbamoyl)benzo[b]thiophen-5-yl)difluoromethyl)phosphonic acid]: the DC50 was more than 10 µM.

As to `CC(C)(C)[C@H](NC(=O)c1cc2cc(C(F)(F)P(=O)(O)O)ccc2s1)C(=O)N1C[C@@H](OCC(=O)NCC#Cc2ccc3c(c2)C(=O)N(C2CCC(=O)NC2=O)C3=O)C[C@H]1C(=O)N1CCC[C@H](c2ccccc2)C1` (stereo partly drawn) [Compound 494, ((2-(((2S)-1-((2S,4S)-4-(2-((3-(2-(2,6-dioxopiperidin-3-yl)-1,3-dioxoisoindolin-5-yl)prop-2-yn-1-yl)amino)-2-oxoethoxy)-2-((R)-3-phenylpiperidine-1-carbonyl)pyrrolidin-1-yl)-3,3-dimethyl-1-oxobutan-2-yl)carbamoyl)benzo[b]thiophen-5-yl)difluoromethyl)phosphonic acid], the DC50 was more than 10 µM.
